Source: the SangsterLogP compilation

Test: method code SF-AS, from DOI: 10.1016/0048-3575(79)90081-6
Conditions: not given

| SMILES | logP |
| --- | --- |
| O=C1CCC(=O)N1c1ccccc1I | 0.8 |
| O=C1CCC(=O)N1c1ccccc1[N+](=O)[O-] | 0.36 |
| COC(=O)c1cccc(N2C(=O)CCC2=O)c1 | 0.36 |
| O=C1CCC(=O)N1c1cccc(F)c1 | 0.38 |
| O=C1CCC(=O)N1c1ccc([N+](=O)[O-])cc1 | 0.46 |
| O=C1CCC(=O)N1c1ccccc1Cl | 0.56 |
| Cc1ccc(N2C(=O)CCC2=O)cc1 | 0.58 |
| CCc1ccc(N2C(=O)CCC2=O)cc1 | 1.1 |
| O=C1CCC(=O)N1c1cccc(Cl)c1 | 0.98 |
| O=C1CCC(=O)N1c1ccc(Br)cc1 | 1.18 |
| Cc1ccccc1N1C(=O)CCC1=O | 0.29 |
| O=C1CCC(=O)N1c1cccc(Br)c1 | 1.09 |
| O=C1CCC(=O)N1c1ccccc1 | 0.06 |
| COc1ccccc1N1C(=O)CCC1=O | -0.02 |

Second part, the compound after the results:

| logP | SMILES |
| --- | --- |
| 0.22 | O=C1CCC(=O)N1c1ccccc1F |
| 0.29 | O=C1CCC(=O)N1c1ccc(F)cc1 |
| 0.02 | N#Cc1cccc(N2C(=O)CCC2=O)c1 |
| 0.38 | O=C1CCC(=O)N1c1cccc([N+](=O)[O-])c1 |
| 0.57 | Cc1cccc(N2C(=O)CCC2=O)c1 |
| 0.76 | O=C1CCC(=O)N1c1ccccc1C(F)(F)F |
| 0.64 | CCc1ccccc1N1C(=O)CCC1=O |
| 1.04 | CCc1cccc(N2C(=O)CCC2=O)c1 |
| 0.96 | O=C1CCC(=O)N1c1ccc(Cl)cc1 |
| 0.65 | O=C1CCC(=O)N1c1ccccc1Br |

Same assay, conditions: pH 7.4

| logD | SMILES |
| --- | --- |
| 1.39 | O=C1CCC(=O)N1c1cccc(I)c1 |
